The values that follow come from the supplement of paper PMC11061612.

Common to all, as to test: Bliss excess, mean over the matrix (fraction); higher = more synergy
For experiment [1], the system named is NCI-H23 (Lung Adenocarcinoma). The method, boiled down:
(§1)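 Cell lines in DMEM/F12 or RPMI with 10% FBS were plated in 1536-well plates, held 24 hours at 37°C, 5% CO2, then given two-drug dose matrices for 72 hours (DMSO typically 0.2%). Viability was read by CellTiter-Glo 2.0 luminescence and scaled as inhibition from 0 (vehicle wells) to 1 (blank wells). Combination Emax is the second-highest inhibition in the matrix; Bliss excess is observed combination effect minus expected EA + EB − EA·EB, EA and EB being single-agent effects.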

Experiment [2] has as its system RCM-1 (Colorectal Carcinoma). The procedure, abridged:
as §1

For experiment [3], the system named is KE-37 (T-Lymphoblastic Leukemia). The procedure, abridged: as §1
The subject of experiment [4] is TE-8 (Esophageal Squamous Cell Carcinoma). The method, boiled down:
as §1

The subject of experiment [5] is SF539 (Glioblastoma). The procedure, abridged:
as §1

Experiment [6] concerns A2058 (Melanoma). The method, boiled down:
as §1

The test system of experiment [7] is PANC-03-27 (Pancreatic Carcinoma). The method, boiled down: as §1
For experiment [8], the system named is RERF-GC-1B (Gastric Carcinoma). The procedure, abridged:
as §1

Experiment [9] relates to LN-229 (Glioblastoma). The procedure, abridged:
as §1

Experiment [10] concerns 23132-87 (Gastric Carcinoma). The method, boiled down: as §1
For experiment [11], the system named is HCT-15 (Colorectal Carcinoma). The procedure, abridged: as §1
For experiment [12], the system named is WM793B (Melanoma). The method, boiled down: as §1
The test system of experiment [13] is COLO-680N (Esophageal Squamous Cell Carcinoma). The method, boiled down: as §1
Experiment [14] concerns RERF-LC-Sq1 (Squamous Cell Lung Carcinoma). The method, boiled down:
as §1

Experiment [15] relates to HEC-1 (Endometrial Carcinoma). The procedure, abridged:
as §1

Experiment [16] concerns MKN45 (Gastric Carcinoma). The method, boiled down: as §1
The test system of experiment [17] is PC-3_[JPC-3] (Lung Adenocarcinoma). The procedure, abridged:
as §1

In experiment [18] the test system is LB996-RCC (Kidney Carcinoma). The procedure, abridged:
as §1

The subject of experiment [19] is SU-DHL-10 (B-Cell Non-Hodgkin's Lymphoma). The method, boiled down:
as §1

The test system of experiment [20] is RKN (Other Solid Carcinomas). The method, boiled down: as §1

Molecules are shown by their SMILES.

With `NC1(C(=O)N[C@@H](CCO)c2ccc(Cl)cc2)CCN(c2ncnc3[nH]ccc23)CC1` [Capivasertib] + CC(=O)c1c(C)c2cnc(Nc3ccc(N4CCNCC4)cn3)nc2n(C2CCCC2)c1=O [Palbociclib] (first compound max 10 µM, 7x7, partner max 10 µM), the Bliss excess in experiment [1] was 0.008; in experiment [2], -0.0058; in experiment [3], 0.0024; in experiment [4] it was -0.0254; in experiment [5] it was -0.0486; in [6], -0.0001. The Bliss excess in [7] was -0.0187; in experiment [8], -0.0203; in experiment [9], -0.0387; in [10], -0.0183; in experiment [11] it was 0.0152; in [12], -0.0375. For the same compound, the Bliss excess was -0.0467 in experiment [13]; 0.0352 in experiment [14]; -0.0115 in experiment [15]; 0.0256 in [16]; 0.002 in experiment [17]; 0.0312 in [18]. Further, the Bliss excess in experiment [19] is 0.0478; in [20] it was -0.0803.
On to `NC1(C(=O)N[C@@H](CCO)c2ccc(Cl)cc2)CCN(c2ncnc3[nH]ccc23)CC1` [Capivasertib] + CC(C)n1c(=O)n(C)c2cnc3cc(F)c(-c4ccc(OCCCN5CCCCC5)nc4)cc3c21 [AZD1390] (first compound max 10 µM, 7x7, partner max 0.3 µM), for which the Bliss excess was -0.0484 in [1]; -0.0274 in experiment [2]; -0.0392 in experiment [3]; -0.0571 in [4]; -0.0528 in [5]; -0.0336 in [6]. Besides, the Bliss excess in experiment [7] is 0.0162; in experiment [8] it was -0.0323; in experiment [9], -0.0755; in experiment [10] it was -0.055; in [11] it was -0.036; in [12], -0.0826. In addition, the Bliss excess in [13] was -0.0403; in [14], -0.0655; in experiment [15] it was -0.0453; in experiment [16], -0.0646; in [17], -0.0982; in [18], -0.0871. Moreover, the Bliss excess in experiment [19] is 0.0402; in experiment [20], -0.0477.
`NC1(C(=O)N[C@@H](CCO)c2ccc(Cl)cc2)CCN(c2ncnc3[nH]ccc23)CC1` [Capivasertib] + CCN(CCO)CCCOc1ccc2c(Nc3cc(CC(=O)Nc4cccc(F)c4)[nH]n3)ncnc2c1 [AZD2811] (first compound max 10 µM, 7x7, partner max 1 µM): the Bliss excess was 0.0232 in experiment [1]; -0.0426 in experiment [2]; 0.0084 in [3]; -0.0406 in [4]; -0.0573 in experiment [5]; 0.0072 in [6]. Besides, the Bliss excess is -0.0068 in [7]; 0.0188 in experiment [8]; -0.0413 in experiment [9]; 0.008 in [10]; -0.0021 in experiment [11]; 0.002 in experiment [12]. For the same compound, the Bliss excess in experiment [13] is -0.0009; in experiment [14], 0.0072; in [15], 0.016; in experiment [16], 0.0383; in [17] it was -0.0168; in experiment [18], -0.0146. Besides, the Bliss excess in experiment [19] was -0.0466; in [20], -0.0711.
Turning to `NC1(C(=O)N[C@@H](CCO)c2ccc(Cl)cc2)CCN(c2ncnc3[nH]ccc23)CC1` [Capivasertib] + COc1nnc2ccc(N3CCC(c4ccc(OCCN5CCN(C)C(=O)[C@H]5C)cc4)CC3)nn12 [AZD5153] (first compound max 10 µM, 7x7, partner max 1 µM), the Bliss excess in [1] was -0.0038; in experiment [2], 0.0153; in experiment [3] it was -0.045; in experiment [4] it was -0.0718; in [5], 0.0157; in experiment [6] it was 0.0597. The Bliss excess in [7] is -0.007; in [8] it was 0.0375; in [9], -0.0313; in [10], 0.0623; in experiment [11], 0.0306; in experiment [12], -0.0115. For the same compound, the Bliss excess in experiment [13] was 0.0355; in experiment [14], 0.0617; in experiment [15] it was 0.0143; in [16], -0.0587; in experiment [17], -0.0186; in experiment [18] it was 0.0131. In addition, the Bliss excess is -0.027 in experiment [19] and -0.0451 in experiment [20].
As to `NC1(C(=O)N[C@@H](CCO)c2ccc(Cl)cc2)CCN(c2ncnc3[nH]ccc23)CC1` [Capivasertib] + C[C@@H]1COCCN1C2=NC(=NC(=C2)C3(CC3)[S@](=N)(=O)C)C4=C5C=CNC5=NC=C4 [AZD6738] (first compound max 10 µM, 7x7, partner max 10 µM), the Bliss excess in experiment [1] was -0.0434; in experiment [2] it was -0.0863; in [3], -0.0061; in [4], -0.0784; in [5], -0.0125; in experiment [6] it was -0.0262. The Bliss excess was -0.0537 in experiment [7]; -0.0076 in experiment [8]; -0.0405 in experiment [9]; 0.0024 in experiment [10]; -0.0104 in experiment [11]; -0.0919 in experiment [12]. The Bliss excess in [13] is -0.0158; in experiment [14], -0.0719; in experiment [15], -0.0205; in [16] it was -0.0553; in experiment [17], -0.0356; in [18], -0.0418. Moreover, the results for the Bliss excess in experiment [19] and in experiment [20] were -0.0359 and -0.124, respectively.
Turning to `NC1(C(=O)N[C@@H](CCO)c2ccc(Cl)cc2)CCN(c2ncnc3[nH]ccc23)CC1` [Capivasertib] + Cn1cnc2c(F)c(Nc3ccc(Br)cc3Cl)c(C(=O)NOCCO)cc21 [Selumetinib] (first compound max 10 µM, 7x7, partner max 10 µM), the Bliss excess in experiment [1] is 0.0101; in experiment [2], 0.019; in experiment [3], 0.0803; in [4] it was -0.0324; in experiment [5] it was -0.0225; in experiment [6], 0.108. Besides, the Bliss excess in [7] was 0.0728; in experiment [8] it was 0.0077; in experiment [9], 0.0437; in experiment [10] it was 0.0687; in experiment [11], 0.0387; in [12], 0.0402. Also, the Bliss excess was 0.028 in experiment [13]; 0.0005 in experiment [14]; 0.0234 in experiment [15]; -0.0478 in [16]; 0.0268 in [17]; 0.0146 in experiment [18]. Moreover, the values for the Bliss excess in [19] and in experiment [20] were 0.0269 and 0.0373, respectively.
Turning to `Cc1nc(Nc2ncc(C(=O)Nc3c(C)cccc3Cl)s2)cc(N2CCN(CCO)CC2)n1` [Dasatinib] + CC(=O)Nc1cccc(-n2c(=O)n(C3CC3)c(=O)c3c(Nc4ccc(I)cc4F)n(C)c(=O)c(C)c32)c1 [Trametinib] (first compound max 2 µM, 7x7, partner max 1 µM), the Bliss excess was 0.0225 in experiment [1]; 0.018 in experiment [2]; -0.0125 in experiment [3]; -0.0436 in experiment [4]; -0.0177 in experiment [5]; 0.005 in [6]. Moreover, the Bliss excess in experiment [7] is 0.0178; in experiment [8] it was 0.0784; in [9], -0.0025; in experiment [10], -0.045; in experiment [11], 0.0847; in [12] it was -0.0015. The Bliss excess in experiment [13] is 0.0389; in experiment [14] it was -0.179; in experiment [15] it was 0.0095; in experiment [16] it was -0.0069; in [17] it was -0.0708; in experiment [18], -0.0527. For the same compound, the Bliss excess in experiment [19] worked out at 0.0745; in [20] it was 0.0011.
